According to PubChem BioAssay AID2060484 (Molecular Pharmacology Branch, DTP, NCI, 2025):
Where “and” joins values, the source holds several entries; their conditions need not be identical. Identical values can stand only once.

Tested on: SUM149PT spheroids with HUVEC/MSC, viability
Test: Anticancer human tumor SUM149PT cell line growth inhibition [GQUAD];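 further: spheroids exposed to drugs for seven days before readout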;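 on viability, T/C: percent viability relative to DMSO vehicle control taken as 100%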
Conditions: for viability, T/C: stronger effect = lower value
From the text: DNA G-quadruplex Stabilizer Agents in Combinations in Complex Spheroids
A high-throughput screen of multi-cell type tumor spheroids was designed to identify active combinations of DNA G-quadruplex stabilizer agents and targeted small molecules. Complex spheroids include a stromal component modeled by human endothelial cells (HUVEC) and fibroblasts modeled by human mesenchymal stem cells (MSCs). The concentration ranges selected for each drug and investigational agent were based upon clinically achievable concentrations if the clinical Cmax of the agent was known.
Compounds. The drugs and investigational agents: pidnarulex (CX-5461; NSC782164), APTO-253 (NSC789042), BRACO-19 (NSC847499), peposertib (NSC802822), ceralasertib (NSC780249), elimusertib (NSC800525), camonsertib (NSC841442), AZD-1390 (NSC803789), olaparib (NSC753686), talazoparib (NSC767125), ART-558 (NSC835418), sotorasib (NSC818433), MRTX-1133 (NSC836407), SN-38 (NSC673596), topotecan (NSC609699), etoposide (NSC141540), doxorubicin (NSC123127), gemcitabine (NSC613327), 5-fluorouracil (NSC19893), paclitaxel (NSC125973), vemurafenib (NSC761431), panobinostat (NSC761190), R-306465 (JNJ-16241199; NSC773264), adavosertib (NSC754352), TP-3654 (NSC805149), carboplatin (NSC241240), KSQ-4279 (NSC840948), and staurosporine (NSC755774) were obtained from the National Cancer Institute (NCI) Developmental Therapeutics Program Chemical Repository (34). The FDA-approved anticancer drug set is available from the NCI Developmental Therapeutics Program. […] The stock solutions were prepared in dimethyl sulfoxide (DMSO, Sigma-Aldrich, St. Louis, MO, cat. D2650) at 800-fold the tested concentration and stored at -70 degrees C prior to their use. All drugs and investigational agents were tested over a range starting from a high concentration at or near the clinical Cmax and decreasing in half-log increments. If the clinical Cmax for an agent had not been determined, the highest concentration tested was 10 microM.
2.3 Cell Culture. All cells were maintained in an incubator at 37 degrees C and 5% CO2 with 95% humidity. The PDC lines were cultured according to standard operating procedures established by the NCI PDMR. All PDCs were thawed and cultured in Matrigel-coated flasks prepared with a working solution of 1X Ham's F-12 nutrient mix, without supplementation (Invitrogen, cat. 11765054), 100 U/mL penicillin-streptomycin (Invitrogen, cat. 15140122), and 2.5% Matrigel (Corning Inc., cat. 354248) for the first three passages. The 857933-349-R-J2-PDC line was cultured in 6C/Colon 1B media, which includes advanced DMEM/F-12 (Thermo Fisher Scientific, cat. 12634028), 10 mM HEPES (Thermo Fisher Scientific, cat. 15630080), 1X GlutaMAX supplement (Thermo Fisher Scientific, cat. 35050061), 0.1 mg/mL primocin (InvivoGen, cat. ant-pm-2), 10% defined fetal bovine serum, heat inactivated (HyClone Laboratories Inc., cat. SH30070.03HI), 50% L-WRN conditioned media (ATCC, cat. CRL-3276), 1.25 mM N-Acetyl-L-cysteine (Sigma-Aldrich, cat. A9165), 10 mM nicotinamide (Sigma-Aldrich, cat. N0636), 1X B-27 supplement (Thermo Fisher Scientific, cat. 17504044), 1X N-2 supplement (Thermo Fisher Scientific, cat. 17502048), 10 microM Y-27632 dihydrochloride (Tocris Bioscience, cat. 1254), and 50 ng/mL human EGF recombinant protein (Thermo Fisher Scientific, cat. PHG0311). The 485176-168-R4-J1-PDC line was cultured in Panc media, which includes all 6C/Colon 1B media components plus 100 ng/mL human FGF-10 (Thermo Fisher Scientific, cat. 100-26), 500 nM SB-431542 (Selleckchem, cat. S1067), and gastrin (Tocris, cat. 3006).
[…]

[1] = curve of first compound, second compound 0.0316 µM
[2] = curve of first compound, second compound 0.1 µM
[3] = curve of first compound, second compound 0.316 µM
[4] = curve of first compound, second compound 1 µM
[5] = curve of first compound, second compound 3.16 µM
[6] = curve of first compound, second compound 10 µM
[7] = second compound 0.0316 µM, first compound 0.0316 µM
[8] = second compound 0.0316 µM, first compound 0.1 µM
[9] = second compound 0.0316 µM, first compound 0.316 µM
[10] = second compound 0.0316 µM, first compound 1 µM
[11] = second compound 0.0316 µM, first compound 3.16 µM
[12] = second compound 0.0316 µM, first compound 10 µM
[13] = second compound 0.1 µM, first compound 0.0316 µM
[14] = second compound 0.1 µM, first compound 0.1 µM
[15] = second compound 0.1 µM, first compound 0.316 µM
[16] = second compound 0.1 µM, first compound 1 µM
[17] = second compound 0.1 µM, first compound 3.16 µM
[18] = second compound 0.1 µM, first compound 10 µM
[19] = second compound 0.316 µM, first compound 0.0316 µM
[20] = second compound 0.316 µM, first compound 0.1 µM
[21] = second compound 0.316 µM, first compound 0.316 µM
[22] = second compound 0.316 µM, first compound 1 µM
[23] = second compound 0.316 µM, first compound 3.16 µM
[24] = second compound 0.316 µM, first compound 10 µM
[25] = second compound 1 µM, first compound 0.0316 µM
[26] = second compound 1 µM, first compound 0.1 µM
[27] = second compound 1 µM, first compound 0.316 µM
[28] = second compound 1 µM, first compound 1 µM
[29] = second compound 1 µM, first compound 3.16 µM
[30] = second compound 1 µM, first compound 10 µM
[31] = second compound 3.16 µM, first compound 0.0316 µM
[32] = second compound 3.16 µM, first compound 0.1 µM
[33] = second compound 3.16 µM, first compound 0.316 µM
[34] = second compound 3.16 µM, first compound 1 µM
[35] = second compound 3.16 µM, first compound 3.16 µM
[36] = second compound 3.16 µM, first compound 10 µM
[37] = second compound 10 µM, first compound 0.0316 µM
[38] = second compound 10 µM, first compound 0.1 µM
[39] = second compound 10 µM, first compound 0.316 µM
[40] = second compound 10 µM, first compound 1 µM
[41] = second compound 10 µM, first compound 3.16 µM
[42] = second compound 10 µM, first compound 10 µM

Compound `CC(=O)O[C@H]1C(=O)[C@@]2(C)[C@H]([C@H](OC(=O)c3ccccc3)[C@]3(O)C[C@H](OC(=O)[C@H](O)[C@@H](NC(=O)c4ccccc4)c4ccccc4)C(C)=C1C3(C)C)[C@]1(OC(C)=O)CO[C@@H]1C[C@@H]2O` + CN(C)c1ccc(Nc2c3ccc(NC(=O)CCN4CCCC4)cc3nc3cc(NC(=O)CCN4CCCC4)ccc23)cc1 has an IC50 [1] of under 31.6 nM, an IC50 [2] of under 31.6 nM and an IC50 [3] of under 31.6 nM. For the same compound, the IC50 [4] was under 31.6 nM, the IC50 [5] was under 31.6 nM and the IC50 [6] was under 31.6 nM. For the same compound, the viability, T/C [7] was 31.9%, the viability, T/C [8] was 25.3% and the viability, T/C [9] was 23.8%. For the same compound, the viability, T/C [10] was 19.5%, the viability, T/C [11] was 19.8% and the viability, T/C [12] was 23.6%. The viability, T/C [13] was 32.8%, the viability, T/C [14] was 24.7% and the viability, T/C [15] was 21.6%. For the same compound, the viability, T/C [16] was 17.8%, the viability, T/C [17] was 19.6% and the viability, T/C [18] was 25.7%. For the same compound, the viability, T/C [19] was 30.6%, the viability, T/C [20] was 25.6% and the viability, T/C [21] was 22.8%. It also gave a viability, T/C [22] of 18.3%, a viability, T/C [23] of 17.2% and a viability, T/C [24] of 22.8%. For the same compound, the viability, T/C [25] was 29.6%, the viability, T/C [26] was 24.4% and the viability, T/C [27] was 16.5%. It also gave a viability, T/C [28] of 13.8%, a viability, T/C [29] of 17% and a viability, T/C [30] of 19.2%. It also gave a viability, T/C [31] of 27.7%, a viability, T/C [32] of 21.1% and a viability, T/C [33] of 17.5%. It also gave a viability, T/C [34] of 12.9%, a viability, T/C [35] of 15.7% and a viability, T/C [36] of 16.2%. The viability, T/C [37] was 26.8%, the viability, T/C [38] was 23.3% and the viability, T/C [39] was 15.8%. It also gave a viability, T/C [40] of 14.5%, a viability, T/C [41] of 15.7% and a viability, T/C [42] of 18.2%.

For `Nc1ccn(C2OC(CO)C(O)C2(F)F)c(=O)n1` (stereo unspecified), the viability, T/C (compound 0.0316 µM) was 74.9% and 85.4% and 74.1%, the viability, T/C (compound 0.1 µM) was 37.6% and 48.4% and 42% and the viability, T/C (compound 0.316 µM) was 24.5% and 38.1% and 20.7%. The viability, T/C (compound 1 µM) was 23.8% and 31.2% and 18.5%, the viability, T/C (compound 3.16 µM) was 16.5% (2×) and 24.5% and the viability, T/C (compound 10 µM) was 15.4% and 24.8% and 17%. For the same compound, the IC50 (curve of compound) was 69.3 nM and 108 nM and 75.1 nM.

Work on `O=C(NO)c1cnc(N2CCN(S(=O)(=O)c3ccc4ccccc4c3)CC2)nc1` + CN(C)c1ccc(Nc2c3ccc(NC(=O)CCN4CCCC4)cc3nc3cc(NC(=O)CCN4CCCC4)ccc23)cc1 yielded an IC50 [1] of 325 nM, an IC50 [2] of 326 nM and an IC50 [3] of 322 nM. It also gave an IC50 [4] of 314 nM, an IC50 [5] of 335 nM and an IC50 [6] of 261 nM. It also gave a viability, T/C [7] of 108%, a viability, T/C [8] of 89.4% and a viability, T/C [9] of 54.2%. For the same compound, the viability, T/C [10] was 0.96%, the viability, T/C [11] was 1.31% and the viability, T/C [12] was 3.07%. The viability, T/C [13] was 116%, the viability, T/C [14] was 98.7% and the viability, T/C [15] was 54%. It also gave a viability, T/C [16] of 0.82%, a viability, T/C [17] of 1.32% and a viability, T/C [18] of 2.31%. For the same compound, the viability, T/C [19] was 104%, the viability, T/C [20] was 98.1% and the viability, T/C [21] was 51%. The viability, T/C [22] was 0.47%, the viability, T/C [23] was 1.57% and the viability, T/C [24] was 1.8%. For the same compound, the viability, T/C [25] was 93%, the viability, T/C [26] was 96% and the viability, T/C [27] was 49.7%. For the same compound, the viability, T/C [28] was 0.55%, the viability, T/C [29] was 2.23% and the viability, T/C [30] was 1.4%. It also gave a viability, T/C [31] of 86.6%, a viability, T/C [32] of 90.9% and a viability, T/C [33] of 52.6%. For the same compound, the viability, T/C [34] was 0.33%, the viability, T/C [35] was 0.17% and the viability, T/C [36] was 1.59%. It also gave a viability, T/C [37] of 87.6%, a viability, T/C [38] of 70.2% and a viability, T/C [39] of 47.4%. The viability, T/C [40] was 0.97%, the viability, T/C [41] was 2.45% and the viability, T/C [42] was 1.01%.
